Source: US9540366B2, “Ring-fused heterocyclic compound” (Kyowa Hakko Kirin Co., Ltd., priority 2012, dated 2017)

What was measured:
[1] = target: T1, human Cav3.2 T-type Ca2+ channel (Homo sapiens, UniProt O95180); experiment: Inhibitory effect for intracellular calcium response via Cav3.2 T-type Ca2+ channels (FLIPR Calcium 3 Assay Kit); format: cell-based
T1 construct: expressed in transfected cells; host or cells: KJMGER8 cells (Namalwa cell-derived cell line)

[2] = system: morphine-induced pruritus mice; experiment: Inhibitory effect for pruritus in morphine-induced pruritus mice; format: in vivo; details: oral dose of 10 mg/kg or less, given 30 minutes or 1 hour before intrathecal morphine; scratching counted for 30 minutes; male ddY mice
Description: Inhibitory Effect for Pruritus in Morphine-Induced Pruritus Mice
Morphine (1 nmol/5 μL, dissolved in physiological saline) or physiological saline was intrathecally administered between the fifth and sixth lumbar vertebrae of male ddY mice using a microsyringe fitted with a 30-gauge injection needle. Mice to which only morphine was administered were referred to as a control group, and mice to which only physiological saline was administered were referred to as a physiological saline-administered group.
The number of scratching behavior with the hind legs which began to be observed immediately after the morphine administration was measured for 30 minutes. Because mice show continuous scratching actions in each scratching behavior, a series of such actions was counted as a single scratching behavior.
Each test compound was administered 30 minutes or 1 hour before the morphine administration. The test compound was suspended in a 0.5% methylcellulose solution and was prepared plural administration solutions of different concentrations, and each of them was orally administered in a volume of 10 mL/kg.

T1 sequence (O95180 whole entry): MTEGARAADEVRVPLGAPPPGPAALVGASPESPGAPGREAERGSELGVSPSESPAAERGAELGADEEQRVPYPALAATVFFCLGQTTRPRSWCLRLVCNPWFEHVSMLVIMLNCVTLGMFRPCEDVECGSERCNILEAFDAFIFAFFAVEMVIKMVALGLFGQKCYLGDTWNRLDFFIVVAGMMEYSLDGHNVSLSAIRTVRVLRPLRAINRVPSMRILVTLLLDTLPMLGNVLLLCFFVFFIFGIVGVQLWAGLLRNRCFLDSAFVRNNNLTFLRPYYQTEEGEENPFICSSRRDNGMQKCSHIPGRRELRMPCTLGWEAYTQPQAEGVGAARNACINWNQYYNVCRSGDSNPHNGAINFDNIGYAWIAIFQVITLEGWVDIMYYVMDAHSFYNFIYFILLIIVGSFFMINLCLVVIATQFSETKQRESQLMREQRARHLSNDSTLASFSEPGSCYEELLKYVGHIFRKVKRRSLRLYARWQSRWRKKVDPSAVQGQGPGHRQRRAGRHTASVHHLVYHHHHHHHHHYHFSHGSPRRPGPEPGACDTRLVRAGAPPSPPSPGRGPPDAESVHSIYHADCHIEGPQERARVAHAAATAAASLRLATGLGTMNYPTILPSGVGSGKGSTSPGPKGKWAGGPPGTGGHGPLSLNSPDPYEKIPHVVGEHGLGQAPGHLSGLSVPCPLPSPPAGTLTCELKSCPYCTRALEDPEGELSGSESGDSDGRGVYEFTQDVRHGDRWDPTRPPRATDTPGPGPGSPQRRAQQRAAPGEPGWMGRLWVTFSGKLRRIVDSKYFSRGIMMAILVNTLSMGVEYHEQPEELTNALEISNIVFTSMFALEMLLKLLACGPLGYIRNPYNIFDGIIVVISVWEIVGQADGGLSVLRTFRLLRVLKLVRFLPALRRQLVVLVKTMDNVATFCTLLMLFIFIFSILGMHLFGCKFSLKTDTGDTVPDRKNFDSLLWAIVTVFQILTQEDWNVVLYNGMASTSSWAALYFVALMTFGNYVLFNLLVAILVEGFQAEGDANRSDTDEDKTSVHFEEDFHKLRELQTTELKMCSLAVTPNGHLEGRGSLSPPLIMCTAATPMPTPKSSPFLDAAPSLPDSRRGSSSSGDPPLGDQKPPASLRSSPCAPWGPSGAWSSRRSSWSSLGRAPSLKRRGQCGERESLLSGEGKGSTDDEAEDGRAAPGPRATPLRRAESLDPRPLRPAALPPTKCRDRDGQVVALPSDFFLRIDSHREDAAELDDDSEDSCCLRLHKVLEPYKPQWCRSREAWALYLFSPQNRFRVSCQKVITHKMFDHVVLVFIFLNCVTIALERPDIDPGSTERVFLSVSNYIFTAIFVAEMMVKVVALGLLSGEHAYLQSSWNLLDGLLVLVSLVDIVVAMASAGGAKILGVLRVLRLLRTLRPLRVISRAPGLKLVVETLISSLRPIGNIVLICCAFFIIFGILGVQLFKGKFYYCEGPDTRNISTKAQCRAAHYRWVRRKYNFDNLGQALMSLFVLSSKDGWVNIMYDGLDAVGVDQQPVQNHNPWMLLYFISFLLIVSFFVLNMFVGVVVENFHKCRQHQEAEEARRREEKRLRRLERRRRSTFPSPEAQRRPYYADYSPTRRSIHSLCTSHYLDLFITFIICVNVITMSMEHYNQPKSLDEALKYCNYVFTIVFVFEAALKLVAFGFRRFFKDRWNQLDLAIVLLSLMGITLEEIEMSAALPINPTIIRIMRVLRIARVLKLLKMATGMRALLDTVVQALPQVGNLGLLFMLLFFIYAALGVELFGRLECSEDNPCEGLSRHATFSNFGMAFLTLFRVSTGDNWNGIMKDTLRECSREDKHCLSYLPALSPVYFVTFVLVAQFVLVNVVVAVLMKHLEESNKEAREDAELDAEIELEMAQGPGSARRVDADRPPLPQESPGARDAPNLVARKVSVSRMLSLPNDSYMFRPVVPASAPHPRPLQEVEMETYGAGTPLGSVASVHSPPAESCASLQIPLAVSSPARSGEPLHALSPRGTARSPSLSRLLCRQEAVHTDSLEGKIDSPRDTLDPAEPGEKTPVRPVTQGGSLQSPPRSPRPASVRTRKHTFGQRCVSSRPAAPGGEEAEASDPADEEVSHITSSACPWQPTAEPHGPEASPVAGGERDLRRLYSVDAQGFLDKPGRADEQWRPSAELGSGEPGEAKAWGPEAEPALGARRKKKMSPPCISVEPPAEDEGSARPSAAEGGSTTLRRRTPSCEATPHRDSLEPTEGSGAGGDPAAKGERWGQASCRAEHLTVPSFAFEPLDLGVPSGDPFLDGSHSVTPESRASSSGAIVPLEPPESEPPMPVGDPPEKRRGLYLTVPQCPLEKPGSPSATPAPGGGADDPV

Structure (SMILES): Cc1cc(C(=O)NC2CCOCC2)cc2nc(C(F)(F)F)c(Cc3ccc(Cl)cc3)n12 [Compound 208, 3-(4-Chlorobenzyl)-5-methyl-N-(tetrahydro-2H-pyran-4-yl)-2-(trifluoromethyl)imidazo[1,2-a]pyridine-7-carboxamide]
- IC50 [1]: ≤ 100 nM
- inhibition of the increase of the scratching behavior in morphine-induced pruritus mice [2]: inhibited the increase of the scratching behavior
